From ChEMBL document CHEMBL1201862, “PubChem BioAssay data set” (2004)
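Five concentrations, 48 hours, 96-well plates. GI50 = concentration required for 50% inhibition of growth.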 Active and inactive are the calls of the source. Rule as the data show it: active = GI50 up to about 1.1 µM and inactive = higher.

Tests used:
Assay in all cases: NCI tumour cell line growth inhibition, 48 h
[1] = test system: 786-0
[2] = test system: A549
[3] = test system: ACHN
[4] = test system: BT-549
[5] = test system: CCRF-CEM
[6] = test system: COLO 205
[7] = test system: HL-60
[8] = test system: HOP-92
[9] = test system: MDA-MB-435
[10] = test system: MOLT-4
[11] = test system: NCI-H226
[12] = test system: NCI-H23
[13] = test system: OVCAR-5
[14] = test system: PC-3
[15] = test system: SF-268
[16] = test system: SF-295
[17] = test system: SK-MEL-28
[18] = test system: SN12C
[19] = test system: T47D
[20] = test system: UO-31

| Compound | GI50 [1] | GI50 [2] | GI50 [3] | GI50 [4] | GI50 [5] | GI50 [6] | GI50 [7] | GI50 [8] | GI50 [9] | GI50 [10] | GI50 [11] | GI50 [12] | GI50 [13] | GI50 [14] | GI50 [15] | GI50 [16] | GI50 [17] | GI50 [18] | GI50 [19] | GI50 [20] |
| --- | --- | --- | --- | --- | --- | --- | --- | --- | --- | --- | --- | --- | --- | --- | --- | --- | --- | --- | --- | --- |
| COc1ccccc1C[C@@H]1OC2(C=CC(=O)CC2SC(=O)c2ccccc2)O[C@H]1Cc1ccccc1OC (stereo not given in full) | 0.275 µM (active) | 2.9 µM (inactive) | 1.51 µM (inactive) | 0.318 µM (active) | 0.294 µM (active) | 1.69 µM (inactive) | 1.16 µM (inactive) | 1.64 µM (inactive) | 1.94 µM (inactive) | 0.449 µM (active) | 2.08 µM (inactive) | 2.03 µM (inactive) | 1.19 µM (inactive) | 1.88 µM (inactive) | 1.02 µM (active) | 1.63 µM (inactive) | 1.75 µM (inactive) | 2.52 µM (inactive) | 1.6 µM (inactive) | 1.28 µM (inactive) |
| CC(C)OC(=O)Nc1cccc(Cl)c1 [CHLORPROPHAM] | > 100 µM (inactive) | > 100 µM (inactive) | > 100 µM (inactive) | 87.7 µM (inactive) | > 100 µM (inactive) | > 100 µM (inactive) | > 100 µM (inactive) | > 100 µM (inactive) | > 100 µM (inactive) | > 100 µM (inactive) | > 100 µM (inactive) | > 100 µM (inactive) | > 100 µM (inactive) | 94.4 µM (inactive) | > 100 µM (inactive) | > 100 µM (inactive) | > 100 µM (inactive) | > 100 µM (inactive) | 50.4 µM (inactive) | > 100 µM (inactive) |
